According to ChEMBL document CHEMBL1137999, “A novel series of p38 MAP kinase inhibitors for the potential treatment of rheumatoid arthritis” (Bioorg Med Chem Lett, 2004):
Values after ≈ are worked out from the molar mass of the structure shown.

Legend:
cells = settings: Homo sapiens
[1] = target: Mitogen-activated protein kinase 14 (Homo sapiens, UniProt Q16539)
Mus musculus [2] = species on record: Mus musculus; assay: animal or person; assay type: functional
Homo sapiens = species on record: Homo sapiens; assay: tissue or blood
[3] = Area under plasma-time concentration curve when administered at 1 mg/kg dose; assay type: ADME, organism-based; set-up: dose 1 mg/kg; settings: rat
Mus musculus [4] = species on record: Mus musculus; assay: animal or person; assay type: functional; remark: listed apart in the source
Mus musculus [5] = species on record: Mus musculus; assay: animal or person; assay type: functional; remark: listed apart in the source
[6] = Log D value at pH 7.4; assay type: physicochemical; settings: buffer
[7] = Solubility was determined; assay type: physicochemical
[8] = Protein binding was determined in human; assay type: ADME
[9] = Volume distribution after iv administration of 1 mg/kg; assay type: ADME, organism-based; set-up: dose 1 mg/kg, route intravenous; settings: rat, in vivo, read-out: Distribution
[10] = Oral bioavailability at 3 mg/kg; assay type: ADME, organism-based; settings: rat, in vivo, read-out: Bioavailabiility

Chain of Mitogen-activated protein kinase 14 (Q16539 whole entry): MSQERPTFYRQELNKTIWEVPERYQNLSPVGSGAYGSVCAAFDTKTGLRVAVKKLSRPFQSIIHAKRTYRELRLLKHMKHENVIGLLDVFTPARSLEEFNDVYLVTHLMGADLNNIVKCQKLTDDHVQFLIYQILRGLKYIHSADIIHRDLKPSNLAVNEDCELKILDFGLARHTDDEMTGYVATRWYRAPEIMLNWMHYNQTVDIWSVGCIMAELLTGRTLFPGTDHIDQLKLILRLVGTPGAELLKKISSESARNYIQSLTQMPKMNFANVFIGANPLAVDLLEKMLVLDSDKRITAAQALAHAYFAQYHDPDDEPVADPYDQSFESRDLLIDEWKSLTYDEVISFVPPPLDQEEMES

Compound | IC50 (cells) [nM] | IC50 [1] [nM] | IC50 (Homo sapiens) [nM] | AUC [3] [µM·h] | other results
COc1ccc(C(=O)Nc2cc(NC(=O)c3cccc(N(C)C)c3)ccc2Cl)cc1OC | 6400 | 220 |  |  | 
Cc1ccc(NC(=O)c2cc(F)cc(N3CCOCC3)c2)cc1NC(=O)c1ccc(OCc2cscn2)cc1 |  | 10 | 2500 | 0.71 | inhibition in vivo at 10 mg/kg (Mus musculus [2]): 37%; inhibition in vivo at 30 mg/kg (Mus musculus [4]): 81%
COc1ccc(C(=O)Nc2ccc(C)c(NC(=O)c3cccc(N(C)C)c3)c2)cc1OC |  | > 20000 |  |  | 
CCOc1ccc(C(=O)Nc2cc(NC(=O)c3cccc(N(C)C)c3)ccc2C)cc1 | 7000 | 60 |  |  | 
C[S+]([O-])c1ccc(-c2nc(-c3ccc(F)cc3)c(-c3ccncc3)[nH]2)cc1 (centres undefined) [SB-203580] |  |  |  |  | inhibition in vivo at 3 mg/kg (Mus musculus [5]): 0%; inhibition in vivo at 10 mg/kg (Mus musculus [2]): 47%; inhibition in vivo at 30 mg/kg (Mus musculus [4]): 50%
COc1cc(C(=O)Nc2cc(NC(=O)c3cccc(N(C)C)c3)ccc2C)cc(OC)c1OC | 3900 | 230 |  |  | 
Cc1ccc(NC(=O)c2cc(N3CCOCC3)cc(C(F)(F)F)c2)cc1NC(=O)c1ccc(OCc2ccccn2)cc1 |  | 20 | 10200 | 0.04 | inhibition in vivo at 10 mg/kg (Mus musculus [2]; dose 10 mg/kg): 4%; inhibition in vivo at 30 mg/kg (Mus musculus [4]; dose 30 mg/kg): 55%
Cc1nc(COc2ccc(C(=O)Nc3cc(NC(=O)c4cccc(N5CCOCC5)c4)ccc3C)cc2)cs1 |  | 20 | 14600 | 2.03 | inhibition in vivo at 3 mg/kg (Mus musculus [5]; dose 3 mg/kg): 33%; inhibition in vivo at 10 mg/kg (Mus musculus [2]; dose 10 mg/kg): 44%; inhibition in vivo at 30 mg/kg (Mus musculus [4]; dose 30 mg/kg): 71%
Cc1ccc(NC(=O)c2cccc(N3CCOCC3)c2)cc1NC(=O)c1ccc(OCc2ccccn2)cc1 |  |  |  | 1.38 | inhibition in vivo at 30 mg/kg (Mus musculus [4]; dose 30 mg/kg): 59%
CCOCCOc1ccc(C(=O)Nc2cc(NC(=O)c3cccc(N(C)C)c3)ccc2C)cc1 | 9500 | 310 |  |  | 
COc1ccc(C(=O)Nc2cc(NC(=O)c3cccc(N(C)C)c3)ccc2F)cc1OC | 22000 | 1900 |  |  | 
COc1ccc(C(=O)Nc2cc(NC(=O)c3cccc(N(C)C)c3)ccc2C)cc1OC | 6400 | 180 |  |  | 
Cc1ccc(NC(=O)c2cccc(N3CCOCC3)c2)cc1NC(=O)c1ccc(OCc2cscn2)cc1 |  |  |  | < 0.12 | inhibition in vivo at 3 mg/kg (Mus musculus [5]): 28%; inhibition in vivo at 10 mg/kg (Mus musculus [2]): 44%; inhibition in vivo at 30 mg/kg (Mus musculus [4]): 56%
COc1ccc(C(=O)Nc2cc(NC(=O)c3cccc(N(C)C)c3)ccc2Br)cc1OC | 9500 | 340 |  |  | 
Cc1ccc(NC(=O)c2cccc(N(C)C)c2)cc1NC(=O)c1ccc(O)cc1 | > 50000 | 180 |  |  | logD [6]: 2.7; solubility [7]: 10 µM (≈ 3.89 µg/mL); Binding [8]: 99.7%
Cc1ccc(NC(=O)c2cccc(N3CCOCC3)c2)cc1NC(=O)c1ccc(OCc2cccnc2)cc1 |  | 90 | 14700 |  | 
Cc1ccc(NC(=O)c2cccc(N3CCOCC3)c2)cc1NC(=O)c1ccc(OCc2ccncc2)cc1 |  | 20 | 3300 | 0.13 | inhibition in vivo at 3 mg/kg (Mus musculus [5]; dose 3 mg/kg): 14%; inhibition in vivo at 10 mg/kg (Mus musculus [2]; dose 10 mg/kg): 43%; inhibition in vivo at 30 mg/kg (Mus musculus [4]; dose 30 mg/kg): 75%
Cc1ccc(NC(=O)c2ccnc(N3CCOCC3)c2)cc1NC(=O)c1ccc(OCc2ccccn2)cc1 |  | 10 | 2800 |  | Vd [9]: 1.6 L/kg; bioavailability [10]: 46%; solubility [7]: < 1 µM; Binding [8]: 99.89%
COc1ccc(C(=O)Nc2cc(NC(=O)c3cccc(N(C)C)c3)ccc2C)c(OC)c1 | > 50000 | 100 |  |  | 
Cc1ccc(NC(=O)c2cc(F)cc(N3CCOCC3)c2)cc1NC(=O)c1ccc(OCc2ccncc2)cc1 |  | 10 | 3400 | < 0.02 | inhibition in vivo at 10 mg/kg (Mus musculus [2]; dose 10 mg/kg): 24%; inhibition in vivo at 30 mg/kg (Mus musculus [4]; dose 30 mg/kg): 40%
Cc1nc(COc2ccc(C(=O)Nc3cc(NC(=O)c4cc(F)cc(N5CCOCC5)c4)ccc3C)cc2)cs1 |  | 90 | 2800 | 0.73 | inhibition in vivo at 3 mg/kg (Mus musculus [5]; dose 3 mg/kg): 0%; inhibition in vivo at 10 mg/kg (Mus musculus [2]; dose 10 mg/kg): 27%; inhibition in vivo at 30 mg/kg (Mus musculus [4]; dose 30 mg/kg): 35%
Cc1ccc(NC(=O)c2cccc(N3CCOCC3)c2)cc1NC(=O)c1ccc(OCc2ccccc2)cc1 |  | 30 | 40000 |  | 
COc1ccc(C(=O)N(C)c2cc(NC(=O)c3cccc(N(C)C)c3)ccc2C)cc1OC |  | > 20000 |  |  | 
CCOc1ccc(C(=O)Nc2cc(NC(=O)c3cccc(N(C)C)c3)ccc2C)cc1OCC | 4500 | 50 |  |  | 
COc1ccc(C(=O)Nc2cc(NC(=O)c3cccc(N(C)C)c3)ccc2C)cc1 | > 50000 | 180 |  |  | 
COCCOc1ccc(C(=O)Nc2cc(NC(=O)c3cccc(N(C)C)c3)ccc2C)cc1 | 3400 | 270 |  |  | 
Cc1ccc(NC(=O)c2cc(F)cc(N3CCOCC3)c2)cc1NC(=O)c1ccc(OCc2ccccn2)cc1 |  | 60 | 11200 | 0.13 | inhibition in vivo at 30 mg/kg (Mus musculus [4]; dose 30 mg/kg): 43%
Cc1ccc(NC(=O)c2cc(F)cc(N3CCCC3)c2)cc1NC(=O)c1ccc(OCc2ccccn2)cc1 |  |  |  | 0.07 | inhibition in vivo at 10 mg/kg (Mus musculus [2]): 3%; inhibition in vivo at 30 mg/kg (Mus musculus [4]): 7%
COc1ccc(C(=O)Nc2cccc(NC(=O)c3cccc(N(C)C)c3)c2)cc1OC |  | > 20000 |  |  | 
